Test results taken from patent publication US12599622B2, “Compounds to modulate intestinal absorption of nutrients” (The Brigham and Women's Hospital, Inc., priority 2013, dated 2026).

How the values were obtained:
[1] = system: Sprague-Dawley (SD) rats; assay: Oral Glucose Tolerance Test (OGTT) after pre-gavage; assay type: in vivo, rat; settings: 15-hour fasted rats, 500 mg/kg 3 times
Experimental: To evaluate the in vivo effect of ASP-PC on postprandial glucose absorption, Sprague-Dawley (SD) rats were pre-gavaged with the particles and tested using the Oral Glucose Tolerance Test (OGTT) method. […] For shorter fasting time, the rats were fasted for 5 hour (starting time: 7 am the same day of OGTT) and gavaged with saline or ASP-PC (starting time: 12 am the same day, dose: 500 mg/kg rat, 3 times, 1-hour apart for each gavage). Blood was collected from the tail vein to measure blood glucose level using a glucometer (OneTouch UltraSmart, LifeScan Inc., USA). Statistical significance was determined using a paired Student t-test. Results were considered significant when p≤0.05.
ASP-PC particles were gavaged in Sprague-Dawley (SD) rats fasted for 5 hour (FIGS. 11A, 11B, and 11C) or 15 hour (FIGS. 11D, 11E, andllF) (dose: 500 mg/kg rat, 3 times, 1-hour apart for each gavage).

[2] = dynamic viscosity by rheometer in simulated stomach acid; assay type: physicochemical; settings: 1% w/v in simulated stomach acid
Experimental: Dynamic viscosity was measured using a 20-mm plate with 200-μm gaps (shear rate: 0.01-100 l/s in log scale, shear rate of 1 l/s was selected to compare viscosity of materials).

[3] = followed by excretion via feces; cited from earlier work
[4] = mechanical stability of pastes (wet and dry weight over time); assay type: physicochemical
Experimental: To assess mechanical stability and physical properties of ASP, each 500 mg of ASP prepared from HCl solutions (0.1-0.3N) was added to 1 ml of simulated stomach acid (pH 1.0) in 37° C. At time points including 0, 10, 30, 60, 120 and 300 minutes, supernatant was removed to measure the wet weight. The remaining paste was lyophilized to measure the dry weight.

[5] = integrative permeation test: glucose barrier on mucin-coated membrane in Franz cell; settings: paste in simulated stomach acid pH 1.0 on mucin-coated membrane; normalized to membrane without material (0% blocked)
Experimental: Specifically, a cellulose nitrate membrane (pore size: 0.2 μm, Whatman, Germany) was incubated in a 3% w/v porcine stomach mucin (Sigma-Aldrich, USA) solution in Hank's balanced salt solution (HBSS) and gently shaken for 2 hours at room temperature. The membrane was washed with distilled deionized water (DDW, pH 7) to remove the excess mucin solution. The mucin-coated membranes were used within 1 hour following preparation. To measure the thickness of the mucin layer, the mucin-coated membrane was lyophilized and imaged using scanning electron microscope (SEM) and the thickness of randomly selected positions was examined (average mucin layer thickness: ˜100 μm).
The dry weight was calculated from dry weights of material-attached membranes and mucin-coated membranes. […] The permeation test was performed in triplicate. The glucose concentration was measured using high performance liquid chromatography (HPLC, Agilent, USA) with an analytical C18 column (Zorbax Eclipse XDB-C18, Agilent). The flow rate was 1 ml/minute, the eluent was DDW, and the wavelength of UV detector was 195 nm.
The barrier properties of the resultant particles were measured by adding 0.9 ml of particle dispersion and 0.1 ml of 10× simulated stomach acid.

[6] = aluminum release / aluminum content by ICP-AES; assay type: physicochemical
Experimental: To confirm the pH dependent release of aluminum from sucralfate and ASP, aluminum-release was measured during ASP paste formation. […] The aluminum content in the supernatants was measured using inductively coupled plasma atomic emission spectroscopy (ICP-AES, ULTIMA-2, Horiba).
To measure additional aluminum release from aluminum-pre-released ASP, formed pastes were washed with DDW, and 500 mg was added to 10 ml of simulated stomach acid. The samples were vortexed for 5 minutes and incubated for 2 hours. The aluminum content in the supernatant solutions was measured using ICP-AES.

viscosity [2]: very high viscosity | total mass liberated upon exposure to stomach acid [4]: ~10%
Substance: sucrose octasulfate-aluminum complex [sucralfate]
peak glucose values at all other time points versus saline [1]: similar | 5-minutes glucose level following OGTT ([1]; p<0.003 vs saline): 97.8 ± 7.3 mg/dL | duration in the GI tract [3]: 2 to 6 h | blocking of glucose (barrier property to glucose permeation) [5]: 62% | percentage of total aluminum released ([6]; in 0.1N HCl): ~9.4% | percentage of total aluminum released ([6]; in 0.3N HCl): ~44.8% | original aluminum content released ([6]; reaction with simulated stomach acid (pH 1.0)): ~9.4%
